Here are results for one compound from patent US5189021A, “Method of treating precocious puberty” (Roussel Uclaf, priority 1979, dated 1993).

In experiment [1] the test system is testicular steroidogensis. As to the kind of experiment: Inhibitory activity against testicular steroidogenesis in men in good health, single intranasal dose. In kind it is in vivo. As to the method:
The inhibitory activity of [D Ser (tbu)^6 of des GlyNH^10 ] LH-RH ethylamide (described in German application Ser. No. 2,438,350) against testicular steroidogensis in men in good health was determined on men in good health aged 30 to 40 years. The said product was administered intranasally at a dose of 500 μg in a few drops of distilled water at 8 A.M. on the third day of the test. For 2 days prior to the treatment and for 6 days after the treatment, samples of blood were taken daily at 8 A.M., 3 P.M. and 10 P.M. On the day of administration of the LH-RH agonist, blood samples were taken at 11 A.M. and 6 P.M.
The seric concentrations of LH and FSH were measured by radioimmuno-logic dosages with double antibodies and the antibodies for measuring LH and FSH were furnished by the National Pituitary Agency of N.I.H. in Bethesda, Md. The seric concentrations of steroids was measured by radio-immuno-logic dosages in which one ml of serum was extracted with ether and the steroids were separated on a LH-20 column before measuring with radioimmuno-logic dosages. The radio-immuno-logic dosage results were determined by a program derived from model II of Rodbard et al [Second Karolinska Symposium on Research Methods in Reproductive Endroerinology Diczfalusky Editor, Copenhague (1970), p. 79-103]. The statistical significance was determined by the "multiple level test" of Duncan-Kramer [Kramer, Biometrics, Vol 12 (1956), p. 307]. The results are shown in the graphs on sheet 1 of the Figures filed herewith.

Experiment [2] has as its system testicular steriodogenosis. As to the kind of experiment: Inhibitory activity on testicular steroidogenesis in a patient with prostate cancer. Type of experiment: in vivo, human. The settings on record: 500 μg intranasally twice a day. The source says:
The inhibitory activity of [D Ser (tbu)^6 of des GlyNH2^10 ] […] The results are reported in the graphs of sheet 2 of the Figures.

For another experiment, the system named is ovarian steroidogenosis. The experiment can be described thus: Inhibitory activity on ovarian steroidogenesis in women. Particulars: for reduction of seric levels of progesterone compared to the controls: typical levels (sheet 3). Type of experiment: in vivo. As to the method:
The inhibitory activity of [D Ser (tbu)^6 of des GlyNH2^10 ] LH-RH ethylamide on ovarian steroidogenosis in women was determined on 6 women aged 26 to 35 years with normal and regular menstrual cycles and without prior endocrinal or gynecological problems. The study was conducted for 6 consecutive cycles consisting of 2 pretreatment cycles, 2 treatment cycles and 2 post-treatment cycles. Two drops of a solution containing 500 μg of [D Ser (tbu)^6 des GlyNH2^10 ] LH-RH ethylamide were deposited on each nostril at 8 A.M. and 5 P.M. of a day between the 4th and 9th day after the peak of LH-day 0. Daily blood samples were taken between 4 and 6 P.M. to measure seric levels of LH, FSH, progesterone and estradiol which were determined by radioimmumo-logictests with double antibodies. The antibodies to measure LH and FSH were furnished by the National Pituitory Agency of N.I.H. of Bethesda, Md.
Estradiol and progesterone were measured with highly specific antibodies developed against 7-(O-carboxymethyl)-oxime of estradiol and 12-(O-carboxymethyl)-oxime of progesterone, respectively [3H] 17β-estradiol and ^125 I-progesterone-12-[O-carboxymethyl)-oxime]used as tracers. The serum was extracted with benzene and the steroids were separated with a LH-20 column before the determination. The radioimmunological results were exploited by the program derived from model II of Rodbard and Lewald as in Example 1 and the statistical significance was measured by the multiple level test of Ducan-Kramer of Example 1. The results are shown in the graphs of sheets 3 to 5 of the Figures.

The mark [3] stands for this setting: 3rd day following administration, intranasal 500 μg.
Where [4] appears, read: after single intranasal dose of 500 μg.

On to `CCNC(=O)[C@@H]1CCCN1C(=O)[C@H](CCCNC(=N)N)NC(=O)[C@H](CC(C)C)NC(=O)[C@@H](COC(C)(C)C)NC(=O)[C@H](Cc1ccc(O)cc1)NC(=O)[C@H](CO)NC(=O)[C@H](Cc1c[nH]c2ccccc12)NC(=O)[C@H](Cc1c[nH]cn1)NC(=O)[C@@H]1CCC(=O)N1` [[D Ser (tbu)^6 des GlyNH2^10] LH-RH ethylamide], for which the “concentration of 17-OH-progesterone relative to the initial control values” in experiment [1] (setting [3]) turned out to be 40%. Also, the “concentration of testosterone relative to the initial control values” in experiment [1] (setting [3]) was 50%. Besides, the “day on which the steroid level returned to normal” value in experiment [1] (setting [4]) is given as “fourth day”. In experiment [1] (setting [4]), the “duration of the drop of seric levels of testicular steroids (testosterone and its precursors)” value was 3 days. Also, the “LH and FSH plasmatic levels” value in experiment [1] (intranasal 500 μg) is on record as “increase”. In addition, the “seric concentration of pregnenolone, 17-OH-pregnenolone, progesterone, 17-OH-progesterone, Δ5-androstene-3β,17β-diol and testosterone” value in experiment [1] (on the day of treatment, intranasal 500 μg) is recorded as “increased”. For the same compound, the “diminution of the level of testosterone” value in experiment [1] (single intranasal dose of 500 μg, human, 3rd day following administration) was 50%. Also, in experiment [2] (prostate cancer patient), the “androgenic steroids (plasmatic level)” value is listed as “diminution”. Moreover, the level of testosterone result in experiment [2] (two weeks of treatment) was “stabilized at a very low level”. Moreover, the “level of progesterone reduced as compared to the controls” value in the experiment on ovarian steroidogenosis (12 cycles, sheet 5, scale 13 to 127%) turned out to be 46%. For the same compound, the “level of progesterone as % of control values (pretreatment cycles = 100%)” value in the experiment on ovarian steroidogenosis (cycles of post-treatment, 12 cycles) worked out at 99%; with ovarian steroidogenosis (cycles of treatment, 12 cycles), 46%. In addition, the “reduction of seric levels of progesterone compared to the controls” value in the experiment with ovarian steroidogenosis (first cycle of treatment) came to 13%; in the experiment on ovarian steroidogenosis (second cycle of treatment), 34%. The “level of seric progesterone in the 2 cycles of treatment” value in the experiment on ovarian steroidogenosis (sheet 4) is on record as “accelerated diminution”.
